Assay results: patent US12365670B2, “GLP-IR agonists and uses thereof” (QILU REGOR THERAPEUTICS INC., priority 2018, dated 2025)

Target: GLP1R (Homo sapiens, UniProt P43220)
Assay: GLP1R cAMP HTRF assay, HEK293/GLP-1R/CRE/Luc (HEK293T cells)
Format: cell-based
Settings: concentration yielding 50% of the maximum cAMP level of the same compound
Description: GLP-1R-mediated agonist activity was determined with a cell-based functional assay utilizing an HTRF (Homogeneous Time-Resolved Fluorescence) cAMP detection kit (cAMP Dynamic 2 Assay Kit; CisBio cat #62AM4PEC) that measures cAMP levels in the cell. The method is a competitive immunoassay between native cAMP produced by the cells and exogenous cAMP labeled with the dye d2. The tracer binding is visualized by a mAb anti-cAMP labeled with Cryptate. The specific signal (i.e., energy transfer) is inversely proportional to the concentration of cAMP in either standard or experimental sample.
A cell line stably expressing the receptor was isolated. […]
IBMX and BSA were freshly added on the day of assay]. A 10 μL sample of the cell suspension was counted on an Invitrogen Countess II to determine cell viability and cell count per mL. […]
Following the 30 minute incubation, 5 μL of labeled d2 cAMP and 5 μL of anti-cAMP antibody (both diluted 1:20 in cell lysis buffer; as described in the manufacturer's assay protocol) were added to each well of the assay plate. […] Raw data were converted to nM cAMP by interpolation from a cAMP standard curve (as described in the manufacturer's assay protocol) and the percent effect was determined relative to a saturating concentration of the full agonist GLP-17-37 (10 nM) included on each plate. […]

Sequence of GLP1R (P43220 24-463): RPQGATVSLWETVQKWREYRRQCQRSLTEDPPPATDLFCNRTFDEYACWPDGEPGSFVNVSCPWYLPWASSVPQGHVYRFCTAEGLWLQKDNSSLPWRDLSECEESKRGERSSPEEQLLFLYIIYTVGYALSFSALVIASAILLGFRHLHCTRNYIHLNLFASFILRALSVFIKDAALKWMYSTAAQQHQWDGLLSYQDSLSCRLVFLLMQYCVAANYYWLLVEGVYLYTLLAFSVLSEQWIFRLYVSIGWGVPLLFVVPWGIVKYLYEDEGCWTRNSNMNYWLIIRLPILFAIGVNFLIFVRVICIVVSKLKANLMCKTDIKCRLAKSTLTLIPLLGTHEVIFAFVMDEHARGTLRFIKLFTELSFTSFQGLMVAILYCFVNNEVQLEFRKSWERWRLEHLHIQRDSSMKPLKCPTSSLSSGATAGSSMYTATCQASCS

Structure (SMILES): N#Cc1ccc(COc2cc(F)cc(C3=CCN(Cc4nc5ccc(C(=O)O)cc5n4C[C@@H]4CCO4)CC3)c2)c(F)c1 [Compound 218, (S)-2-((4-(3-((4-cyano-2-fluorobenzyl)oxy)-5-fluorophenyl)-5,6-dihydropyridin-1(2H)-yl)methyl)-1-(oxetan-2-ylmethyl)-1H-benzo[d]imidazole-6-carboxylic acid]
- EC50: ≤ 150 nM
